# Test results as given in publication PMC8162438, “Cancer cell-selective modulation of mitochondrial respiration and metabolism by potent organogold(III) dithiocarbamates” (Chemical Science, 2020).
# Tests used:
# MDA-MB-231 [1] = experiment: Mitochondrial membrane potential (JC-1); type: cell-based; conditions: MDA-MB-231, 10 μM, 6 h, versus DMSO
# Text: Activated DEG included NDUFS7, [complex I], COX7A1 gene [complex IV], and ATP5O, ATP5I genes [complex V] whereas the inhibited DEG were MT-ND4L [complex I], SDHD gene [complex II], and ATP5C, ATP5F [complex V]. […] These findings prompted functional biology experiments to further corroborate the effect of 2a or its mechanism of action in TNBC. We examined the effect of 2a on mitochondrial membrane potential, assayed by JC-1 dye.[85] […] We used carbonyl cyanide m-chlorophenyl hydrazine (CCCP), an uncoupler, as a positive control to validate the experiment. The MMP is a key driving force in ATP synthesis and overall a key factor in maintaining redox homeostasis throughout the cell.[86] […]
# text (Figure 5C). Samples 37 °C, NaN 3, methyl-β-cyclodextrin, and chlorpromazine hydrochloride were calculated using calibration curve Fig. S134 and samples wortmannin, genistein, and +4 °C were calculated using calibration curve Fig. S135. […]
# Prior to analysis samples were required to pass three tests before library construction: 1) nanodrop for RNA purity (OD 260/OD280), 2) agarose gel electrophoresis for RNA integrity and potential contamination, and 3) Agilent 2100 check RNA integrity. […] After library construction, qPCR was used to accurately quantify the library effective concentration (> 2 nM), in order to ensure the library quality. […]
# MDA-MB-231 [2] = experiment: Cell cycle analysis by flow cytometry (PI); type: cell-based; conditions: MDA-MB-231, 0.1 μM
# Procedure: The effect of 2a on cell cycle was studied by flow cytometry. We observed a time-dependent increase in G0/G1 cell cycle population over 24–72 h period. […] There are several small molecule drug candidates in clinical trials as inhibitors of CDK4/6 and induce G1 cell cycle arrest.[107–110] Thus, our finding is relevant for the design of gold based therapies for refractory tumors such as TNBC.[107–110] After 24 h, a 10% increase can be seen for G1 cell population as well as a 6% decrease in S phase in comparison to the control (Fig. 12B and C). […] The mitochondria control cellular ATP production, it is therefore possible that inhibition of mitochondria respiration and consequently low ATP levels lead to cell cycle arrest.[112–114] […]
# with a final volume of 100 µL and incubated overnight at 37 °C. Compound 2a was prepared as a stock in DMSO and diluted to a working concentration of 200 µM with Seahorse XF96 assay buffer and then subsequently serial diluted by 3x to achieve multiple concentrations. The assay was performed using a pneumatic injection method of 2a, with the final injection concentrations of 0.1, 1, 3 , and 11 µM. This was followed by injection of oligomycin (1.5 µM), FCCP (0.6 µM) and rotenone/ antimycin A (0.5 µ M). […]
# supplementary information of the following papers. 15-16
# The Seahorse XF96 analysis for MRC5 was performed in an identical manner to MDA-MB-231 except that MRC5 cells were seeded at a density of 50,000 cells/well and an FCCP injection concentration of 0.6 µ M was used.
# Cell Cycle Analysis. MDA-MB-231 cells were seeded at a density of 2 x 10^5 cells/well in a 6 well clear bottom plate with a final media volume of 2 mL and allowed to adhere overnight 37 °C. Compound 2a was prepared fresh as a stock in DMSO and added at a final concentration of 0.1 µM with a final volume of 2.5 mL. […] These solutions were stored at 4 °C until ready for analysis. […] The samples were then analyzed with FACS. […]
smiles,measurement,setting,value
C[N+](C)=C1[S][Au-2]2([S]1)[c]1ccccc1Cc1cccc[n+]12.F[P-](F)(F)(F)(F)F (stereo not shown) [2a],Mitochondrial membrane potential (JC-1),MDA-MB-231 [1],strong depolarization of the MMP
same,Decrease in S phase versus control,MDA-MB-231 [2]; 24 h,6%
same,Increase in G1 cell population versus control,MDA-MB-231 [2]; 24 h,10%
same,G1 phase change over 72 h,MDA-MB-231 [2]; 72 h,significant increase in G1 phase
